# Measured values from patent US10266497B2 (ABIDE THERAPEUTICS, INC., priority 2017, dated 2019).
# Assays:
# [1] = molecular target: T1, MAGL (Homo sapiens, UniProt Q99685); test: In vitro competitive activity-based protein profiling, MAGL, human; details: read-out: MAGL % inh. 1 μM (human)
# T1 sequence (Q99685 1-303): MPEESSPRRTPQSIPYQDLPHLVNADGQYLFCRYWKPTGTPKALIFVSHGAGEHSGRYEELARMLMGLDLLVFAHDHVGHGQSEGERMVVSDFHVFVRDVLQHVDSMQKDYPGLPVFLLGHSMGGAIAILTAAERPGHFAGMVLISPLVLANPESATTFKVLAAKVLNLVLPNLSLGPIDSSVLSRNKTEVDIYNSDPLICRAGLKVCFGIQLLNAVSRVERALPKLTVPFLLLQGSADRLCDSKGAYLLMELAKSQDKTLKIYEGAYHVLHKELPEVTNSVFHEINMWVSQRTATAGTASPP
# [2] = molecular target: T2, MAGL (Mus musculus, UniProt O35678); test: In vitro competitive activity-based protein profiling, MAGL, mouse; details: read-out: MAGL % inh. 1 μM (mouse)
# T2 sequence (O35678 1-303): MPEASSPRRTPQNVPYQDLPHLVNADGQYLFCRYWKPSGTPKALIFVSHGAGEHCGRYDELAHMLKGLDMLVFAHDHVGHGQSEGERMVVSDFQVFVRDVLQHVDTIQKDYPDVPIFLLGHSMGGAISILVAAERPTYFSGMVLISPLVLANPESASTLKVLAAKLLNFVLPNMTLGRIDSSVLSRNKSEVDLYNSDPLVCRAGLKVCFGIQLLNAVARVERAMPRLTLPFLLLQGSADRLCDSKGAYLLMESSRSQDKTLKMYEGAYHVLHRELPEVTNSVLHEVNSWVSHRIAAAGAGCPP
inhibition at 1 µM [1] [%],inhibition at 1 µM [2] [%],Structure (SMILES)
0 to 25,50 to 75,"O=C(O)c1ccn(C(=O)N2CCC3(CCN(Cc4cccc(Oc5cncnc5)c4)C3)CC2)n1 [Example 31, 1-(2-(3-(Pyrimidin-5-yloxy)benzyl)-2,8-diazaspiro[4.5]decane-8-carbonyl)-1H-pyrazole-3-carboxylic Acid]"
> 75,> 75,"CN(Cc1cccc(C(F)(F)F)c1)C1(C)CCN(C(=O)n2ccc(C(N)=O)n2)CC1 [Example 258, 1-(4-methyl-4-(methyl(3-(trifluoromethyl)benzyl)amino)piper-idine-1-carbonyl)-1H-pyrazole-3-carboxamide]"
25 to 50,25 to 50,"CCOc1cc(CN2CCC3(CCN(C(=O)n4ccc(C(=O)O)n4)CC3)C2)ccc1Cl [Example 21, 1-(2-(4-chloro-3-ethoxybenzyl)-2,8-diazaspiro[4.5]decane-8-carbonyl)-1H-pyrazole-3-carboxylic acid]"
> 75,> 75,"O=C(O)c1ccn(C(=O)N2C[C@H]3C[C@H](Oc4ccccc4C4CCOCC4)C[C@H]3C2)n1 [Example 268, 1-(trans-5-(2-(tetrahydro-2H-pyran-4-yl)phenoxy)octa-hydrocyclopenta[c]pyrrole-2-carbonyl)-1H-pyrazole-3-carboxylic acid]"
> 75,> 75,"Cc1c(CO[C@H]2C[C@@H]3CN(C(=O)n4cc(Cl)c(C(=O)O)n4)C[C@@H]3C2)cccc1C(F)(F)F [Example 341, 4-chloro-1-(trans-5-((2-methyl-3-(trifluoromethyl)benzyl)oxy)octa-hydrocyclopenta[c]pyrrole-2-carbonyl)-1H-pyrazole-3-carboxylic acid]"
> 75,> 75,"O=C(O)c1ccn(C(=O)N2CCN(Cc3cccc(Oc4ccnc(C(F)(F)F)c4)c3)CC2)n1 [Example 355, 1-(4-(3-((2-(trifluoromethyl)pyridin-4-yl)oxy)benzyl)piper-azine-1-carbonyl)-1H-pyrazole-3-carboxylic acid]"
> 75,> 75,"O=C(O)c1ccn(C(=O)N2C[C@H]3C[C@H](Oc4cccc(C5CCCC5)c4)C[C@H]3C2)n1 [Example 232, 1-(trans-5-(3-cyclopentylphenoxy)octahydrocyclopenta [c]pyrrole-2-carbonyl)-1H-pyrazole-3-carboxylic acid]"
> 75,> 75,"O=C(O)c1nn(C(=O)N2CCN(Cc3cccc(Oc4cc(C(F)(F)F)ccn4)c3)CC2)cc1Cl [Example 399, 4-chloro-1-(4-(3-((4-(trifluoromethyl)pyridin-2-yl)oxy)benzyl)piper-azine-1-carbonyl)-1H-pyrazole-3-carboxylic acid]"
> 75,> 75,"Cc1ccc(COC2CCN(C(=O)n3ccc(C(=O)O)n3)CC2)cc1C(F)(F)F [Example 236, 1-(4-((4-methyl-3-(trifluoromethyl)benzyl)oxy)piper-idine-1-carbonyl)-1H-pyrazole-3-carboxylic acid]"
0 to 25,0 to 25,"NC(=O)c1ccn(C(=O)N2CCC3(CCN(Cc4cc5ccc(C(F)(F)F)cc5s4)C3)CC2)n1 [Example 377, 1-(2-((6-(trifluoromethyl)benzo[b]thiophen-2-yl)methyl)-2,8-diazaspiro[4.5]decane-8-carbonyl)-1H-pyrazole-3-carboxamide]"
> 75,> 75,"O=C(O)c1ccn(C(=O)N2CCC3(CCCN3Cc3ccc(C(F)(F)F)cc3N3CCOCC3)CC2)n1 [Example 405, 1-(1-(2-morpholino-4-(trifluoromethyl)benzyl)-1,8-diazaspiro[4.5]decane-8-carbonyl)-1H-pyrazole-3-carboxylic acid]"
> 75,> 75,"C[C@@H]1CN(Cc2ccc(-c3ccccc3)cc2C(F)(F)F)CCN1C(=O)n1ccc(C(=O)O)n1 [Example 351, (R)-1-(2-methyl-4-((3-(trifluoromethyl)-[1,1′-biphenyl]-4-yl)methyl)piperazine-1-carbonyl)-1H-pyrazole-3-carboxylic acid]"
25 to 50,0 to 25,"O=C(O)c1ccn(C(=O)N2CCC3(CCCN3Cc3ccc(C(F)(F)F)cc3N3CCN4CCC[C@@H]4C3)CC2)n1 [Example 417, (R)-1-(1-(2-(hexahydropyrrolo[1,2-a]pyrazin-2(1H)-yl)-4-(trifluoromethyl)benzyl)-1,8-diazaspiro[4.5]decane-8-carbonyl)-1H-pyrazole-3-carboxylic acid]"
> 75,> 75,"O=C(O)c1ccn(C(=O)N2CCN(Cc3ccc(C(F)(F)F)cc3N3CC[C@H](O)C3)CC2)n1 [Example 332, (S)-1-(4-(2-(3-hydroxypyrrolidin-1-yl)-4-(trifluoromethyl)benzyl)piperazine-1-carbonyl)-1H-pyrazole-3-carboxylic acid]"
> 75,> 75,"C[C@H]1CN(Cc2cc(Cl)cc(C(F)(F)F)c2)CCN1C(=O)n1ccc(C(N)=O)n1 [Example 271, (S)-1-(4-(3-chloro-5-(trifluoromethyl)benzyl)-2-methylpiperazine-1-carbonyl)-1H-pyrazole-3-carboxamide]"
> 75,> 75,"O=C(O)c1ccn(C(=O)N2C[C@H]3C[C@H](Oc4cccc(N5CCCC5)c4)C[C@H]3C2)n1 [Example 234, 1-(trans-5-(3-(pyrrolidin-1-yl)phenoxy)octa-hydrocyclopenta[c]pyrrole-2-carbonyl)-1H-pyrazole-3-carboxylic acid]"
> 75,> 75,"C[C@@H]1CN(Cc2cccc(Oc3cc(C(F)(F)F)ccn3)c2)CCN1C(=O)n1ccc(C(=O)O)n1 [Example 374, (R)-1-(2-methyl-4-(3-((4-(trifluoromethyl)pyridin-2-yl)oxy)benzyl)piper-azine-1-carbonyl)-1H-pyrazole-3-carboxylic acid]"
> 75,> 75,"O=C(O)c1ccn(C(=O)N2C[C@H]3C[C@H](Oc4ccccc4-c4ccccc4)C[C@H]3C2)n1 [Example 239, 1-(trans-5-([1,1′-biphenyl]-2-yloxy)octahydro-cyclopenta[c]pyrrole-2-carbonyl)-1H-pyrazole-3-carboxylic acid]"
25 to 50,0 to 25,"O=C(O)c1ccn(C(=O)N2CCN(Cc3cccc(Oc4cccnn4)c3)CC2)n1 [Example 229, 1-(4-(3-(pyridazin-3-yloxy)benzyl)piper-azine-1-carbonyl)-1H-pyrazole-3-carboxylic acid]"
> 75,> 75,"O=C(O)c1ccn(C(=O)N2CCN(Cc3ccc(C(F)(F)F)cc3N3CC4CCC(C3)O4)CC2)n1 [Example 380, 1-(4-(2-(8-oxa-3-azabicylco[3.2.1]octan-3-yl)-4-(trifluoromethyl)benzyl)piperazine-1-carbonyl)-1H-pyrazole-3-carboxylic acid]"
> 75,> 75,"Cc1c(CO[C@@H]2C[C@@H]3CN(C(=O)n4ccc(C(=O)O)n4)C[C@@H]3C2)cccc1C(F)(F)F [Example 289, 1-(cis-5-((2-methyl-3-(trifluoromethyl)benzyl)oxy)octa-hydrocyclopenta[c]pyrrole-2-carbonyl)-1H-pyrazole-3-carboxylic acid]"
> 75,> 75,"O=C(O)c1ccn(C(=O)N2CCN(Cc3cccc(Oc4ncccc4F)c3)CC2)n1 [Example 264, 1-(4-(3-((3-fluoropyridin-2-yl)oxy)benzyl)piper-azine-1-carbonyl)-1H-pyrazole-3-carboxylic acid]"
> 75,> 75,"CN(Cc1cccc(-c2ccccc2)c1)[C@H]1C[C@@H]2CN(C(=O)n3ccc(C(=O)O)n3)C[C@@H]2C1 [Example 298, 1-(trans-5-(([1,1′-biphenyl]-3-ylmethyl)(methyl)amino)octahydrocyc-lopenta[c]pyrrole-2-carbonyl)-1H-pyrazole-3-carboxylic acid]"
> 75,> 75,"CC(C)(O)COc1cccc(CN2CCN(C(=O)n3ccc(C(=O)O)n3)CC2)c1Cl [Example 213, 1-(4-(2-chloro-3-(2-hydroxy-2-methylpropoxy)benzyl)piperazine-1-carbonyl)-1H-pyrazole-3-carboxylic acid]"
25 to 50,0 to 25,"O=C(O)c1ccn(C(=O)N2CCC3(CCN(Cc4cccc(Oc5ccccn5)c4)C3)CC2)n1 [Example 324, 1-(2-(3-(pyridin-2-yloxy)benzyl)-2,8-diazaspiro[4.5]decane-8-carbonyl)-1H-pyrazole-3-carboxylic acid]"
> 75,> 75,"O=C(O)c1ccn(C(=O)N2CCC3(CCCN3Cc3ccc(C(F)(F)F)cc3N3CC4COCC4C3)CC2)n1 (stereo not shown) [Example 415, 1-(1-(2-(tetrahydro-1H-furo[3,4-c]pyrrol-5(3H)-yl)-4-(trifluoromethyl)benzyl)-1,8-diazaspiro[4.5]decane-8-carbonyl)-1H-pyrazole-3-carboxylic acid]"
